What was measured:
Assay in all cases: relative viability (nuclei count vs DMSO), 5 days (fraction); higher = more cells survive
JZL-184 + Bortezomib = compound: C1CN(CCC1C(C2=CC3=C(C=C2)OCO3)(C4=CC5=C(C=C4)OCO5)O)C(=O)OC6=CC=C(C=C6)[N+](=O)[O-] [JZL-184] + CC(C)C[C@H](NC(=O)[C@H](Cc1ccccc1)NC(=O)c1cnccn1)B(O)O [Bortezomib] (partner 0.002 µM)
In short: (§1)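 Nuclei were stained with Hoechst during a one-step fixation (final 0.05% Triton X-100, 1% formaldehyde, 1 ug/ml Hoechst) carried out 5 days after dosing, then counted on 4× images. The cells, lung cancer lines in 1536-well plates, had been dosed by pin tool the day after seeding with one drug alone or a fixed anchor-drug dose plus five library-drug doses (not always all listed) in √10 steps. Relative viability is the nuclei count in treated wells divided by that in vehicle wells, and each value is the median of duplicate plates.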

JZL-184 + Phenformin = compound: C1CN(CCC1C(C2=CC3=C(C=C2)OCO3)(C4=CC5=C(C=C4)OCO5)O)C(=O)OC6=CC=C(C=C6)[N+](=O)[O-] [JZL-184] + N=C(N)NC(=N)NCCc1ccccc1 [Phenformin] (partner 250 µM)
In short: as §1

JZL-184 + AZD7762 = compound: C1CN(CCC1C(C2=CC3=C(C=C2)OCO3)(C4=CC5=C(C=C4)OCO5)O)C(=O)OC6=CC=C(C=C6)[N+](=O)[O-] [JZL-184] + NC(=O)Nc1cc(-c2cccc(F)c2)sc1C(=O)N[C@H]1CCCNC1 [AZD7762] (partner 0.2 µM)
In short: as §1

JZL-184 + Decitabine = compound: C1CN(CCC1C(C2=CC3=C(C=C2)OCO3)(C4=CC5=C(C=C4)OCO5)O)C(=O)OC6=CC=C(C=C6)[N+](=O)[O-] [JZL-184] + Nc1ncn([C@H]2C[C@H](O)[C@@H](CO)O2)c(=O)n1 [Decitabine] (partner 2 µM)
In short: as §1

JZL-184 + Linsitinib = compound: C1CN(CCC1C(C2=CC3=C(C=C2)OCO3)(C4=CC5=C(C=C4)OCO5)O)C(=O)OC6=CC=C(C=C6)[N+](=O)[O-] [JZL-184] + C[C@]1(O)C[C@@H](c2nc(-c3ccc4ccc(-c5ccccc5)nc4c3)c3c(N)nccn32)C1 [Linsitinib] (partner 1 µM)
In short: as §1

Cell Line | relative viability (JZL-184 + Bortezomib; first compound 0.04 µM) | relative viability (JZL-184 + Bortezomib; first compound 0.4 µM) | relative viability (JZL-184 + Bortezomib; first compound 1.265 µM) | relative viability (JZL-184 + Bortezomib; first compound 4 µM) | relative viability (JZL-184 + Phenformin; first compound 0.04 µM) | relative viability (JZL-184 + Phenformin; first compound 0.4 µM) | relative viability (JZL-184 + Phenformin; first compound 1.265 µM) | relative viability (JZL-184 + Phenformin; first compound 4 µM) | relative viability (JZL-184 + AZD7762; first compound 0.04 µM) | relative viability (JZL-184 + AZD7762; first compound 0.4 µM) | relative viability (JZL-184 + AZD7762; first compound 1.265 µM) | relative viability (JZL-184 + AZD7762; first compound 4 µM) | relative viability (JZL-184 + Decitabine; first compound 0.04 µM) | relative viability (JZL-184 + Decitabine; first compound 0.4 µM) | relative viability (JZL-184 + Decitabine; first compound 1.265 µM) | relative viability (JZL-184 + Decitabine; first compound 4 µM) | relative viability (JZL-184 + Linsitinib; first compound 0.04 µM) | relative viability (JZL-184 + Linsitinib; first compound 0.4 µM) | relative viability (JZL-184 + Linsitinib; first compound 1.265 µM) | relative viability (JZL-184 + Linsitinib; first compound 4 µM)
NCI-H727 | 0.988 | 0.689 | 0.797 | 0.802 | 0.676 | 0.517 | 0.509 | 0.45 | 0.493 | 0.464 | 0.621 | 0.595 | 0.928 | 0.663 | 0.626 | 1.13 | 0.203 | 0.314 | 0.233 | 0.373
NCI-H838 | 1.13 | 0.828 | 0.819 | 0.636 | 0.594 | 0.601 | 0.643 | 0.608 | 1.01 | 0.896 | 0.929 | 0.915 | 0.551 | 0.475 | 0.465 | 0.467 | 1.23 | 1.05 | 0.98 | 0.98
NCI-H1355 | 1.28 | 1.18 | 1.18 | 1.18 | 0.421 | 0.427 | 0.505 | 0.429 | 0.922 | 0.674 | 0.769 | 0.733 | 0.349 | 0.34 | 0.36 | 0.347 | 0.606 | 0.856 | 0.842 | 0.8
NCI-H1437 | 0.594 | 0.512 | 0.479 | 0.373 | 0.301 | 0.307 | 0.302 | 0.288 | 1.19 | 1.07 | 1.15 | 1.19 | 0.649 | 0.611 | 0.585 | 0.561 | 1.24 | 1.01 | 1.07 | 0.958
NCI-H1651 | 0.993 | 0.954 | 1 | 0.999 | 0.393 | 0.3 | 0.337 | 0.353 | 0.427 | 0.455 | 0.456 | 0.474 | 0.667 | 0.358 | 0.428 | 0.623 | 0.988 | 0.927 | 0.933 | 0.816
NCI-H1666 | 0.98 | 0.714 | 0.868 | 0.904 | 0.614 | 0.585 | 0.538 | 0.534 | 0.915 | 0.764 | 0.818 | 0.923 | 0.77 | 0.557 | 0.701 | 0.792 | 0.836 | 0.921 | 0.917 | 0.881
NCI-H1734 | 1.03 | 0.842 | 1.02 | 0.884 | 0.469 | 0.36 | 0.38 | 0.349 | 0.571 | 0.518 | 0.719 | 0.625 | 0.536 | 0.494 | 0.512 | 0.501 | 0.852 | 0.796 | 0.898 | 0.86
NCI-H1755 | 1.13 | 0.895 | 0.933 | 0.859 | 0.636 | 0.621 | 0.614 | 0.601 | 0.397 | 0.379 | 0.456 | 0.433 | 0.751 | 0.701 | 0.71 | 0.704 | 0.976 | 1.01 | 1.01 | 0.943

Source: the supplement of paper PMC10307832
